Results: patent US12396942B2, “Seed extract of Annona cherimola” (CLR-Chemisches Laboratorium Dr. Kurt Richter GmbH, priority 2019, dated 2025)

Assays:
IL-1β = experiment: Capsaicine-induced IL-1β release in co-culture of keratinocytes and human sensory neurons; type: cell-based; settings: FIG. 3
Experimental: (§1) To examine whether an F230 extract prepared as described in Example 1 is able to inhibit IL-1β and IL-8 expression, a co-culture system of keratinocytes and human sensory neurons was used. Human sensory neurons were derived from human induced pluripotent stem cells (hiPS cells). hiPS cells were obtained by transfecting human fibroblasts which were reprogrammed into […]. hiPS cells were plated in 6 wells plates coated by a thin layer of Matrigel® (Corning GmbH, Kaiserslautern, Germany) at a density of 250,000 cells in a medium composed by DMEM-F12 (Pan-Biotech, Aidenbach, Germany) supplemented with 10% Knockout Serum Replacement (Life technologies, Carlsbad, USA), 0.1 μM retinoic acid (Sigma Aldrich, Taufkirchen, Germany), 1% P/S (Pan-Biotech) and a cocktail of inhibitors. The culture was maintained for 6 days at 37° C. and 5% of CO2.
(§2) After 6 days of differentiation, hiPS cells were plated at a density of 20,000 cells in the differentiation medium using 96-well plates that had been coated with a thin layer of Matrigel®. […] Samples were evaluated by cytometry flux (BD Bioscience) and compared to non-treated controls.

IL-8 = experiment: Capsaicine-induced IL-8 release in co-culture of keratinocytes and human sensory neurons; type: cell-based; settings: FIG. 4
Experimental: as §1, §2

[1] = co-culture of keratinocytes and human sensory neurons, 1 hour capsaicin stimulation, supernatant
[2] = co-culture, capsaicine as stimulus, compared to non-treated controls

SMILES | inhibition of capsaicine-induced IL-1β release (IL-1β; [1]) | inhibition of capsaicine-induced IL-8 release (IL-8; [1]) | IL-1β expression on incubation with capsaicine alone (IL-1β; [2]) | IL-8 expression on incubation with capsaicine alone (IL-8; [2])
Oc1cc2c(cc1O)CN(C(=S)NCCc1ccc(Cl)cc1)CCC2 [capsazepine] | completely abrogates IL-1β release | significantly reduced IL-8 release | – | –
COc1cc(CNC(=O)CCCC/C=C/C(C)C)ccc1O [capsaicine] | – | – | strongly induced IL-1β expression | strongly induced IL-8 expression
